Assay results published in article PMC6681021 (Pharmaceutics, 2019).
Where “and” joins values, the source holds several entries; their conditions need not be identical. Equal entries are not always repeated. Where two headings read alike, the source gives them in different places.

What was measured:
[1] = humans, cited from earlier work
[2] = Human pharmacokinetics of tofacitinib (literature); format: in vivo; conditions: humans; 100–74%
[3] = Pharmacokinetics after 1-min intravenous infusion of tofacitinib to rats; format: in vivo, Sprague-Dawley rats; conditions: for clearance / CL renal / MRT / half-life / Vd: Sprague-Dawley; for clearance / CL renal / MRT / half-life / Vd / AUC: rat; for Dose-normalized AUC: normalized to 10 mg/kg; for half-life: read-out: Terminal half-life; for Vd: read-out: Vss; for AUC: 1-min iv infusion, male Sprague-Dawley rats
Experimental: The pretreatment and surgical procedures for oral and intravenous administration were similar to those described previously. For oral administration, the rats were fasted overnight with free access to water. The rats were anesthetized with ketamine (200 mg/kg), and their carotid arteries were cannulated using polyethylene tubing (Clay Adams, Parsippany, NJ, USA) for blood sampling. For intravenous administration, the rats were anesthetized with ketamine (200 mg/kg), and their jugular veins and carotid arteries were cannulated for drug administration and blood sampling, respectively. Rats were allowed to recover for 4–5 h after surgical procedures. The rats were not restrained during the experimental period and had free access to water and food.
Blood samples (110–220 μL) were collected via the carotid artery at times 0 (prior to drug administration), 1 (at the end of drug infusion), 5, 15, 30, 45, 60, 90, 120, 180, 240, 360, 480, and 600 min. […] To prevent blood clotting, 0.3 mL of heparinized 0.9% NaCl-injectable solution (20 IU/mL) was immediately injected into the carotid artery after each blood sampling. Urine samples were collected over 24 h; in addition, each metabolic cage was rinsed with 20 mL of distilled water 24 h after drug administration, and the rinses were combined with their corresponding 24-h urine samples. […] At 24-h, each rat was exsanguinated, followed by cervical dislocation. The abdomen of each rat was opened and the entire gastrointestinal tract, including its contents and feces, was removed, transferred to a beaker containing 50 mL methanol, and cut into small pieces using scissors.
Two microliters of hydrocortisone (5 mg/mL) and 40 μL of 20% ammonia solution were added to 100 μL aliquots of biological samples and vortex-mixed for 30 s using a vortex mixer. Each solution was extracted with 1.5 mL of ethyl acetate by centrifugation at 12,000 rpm for 5 min. The organic layer was collected and dried (Dry Thermobath, Eyela, Tokyo, Japan) under a gentle stream of nitrogen gas at 40 °C. The samples were reconstituted in 130 μL of 20% acetonitrile, and 50 μL of resuspended samples were analyzed by HPLC [12].
The mobile phase consisted of a 69.5:30.5 (v/v) mixture of 10 mM ammonium acetate buffer (pH 5.0) and acetonitrile, respectively, with a flow rate of 1.0 mL/min. Column effluent was monitored by a UV detector at 287 nm.
Pharmacokinetic parameters, including AUC, apparent volume of distribution at steady state (Vss), mean residence time (MRT), and time-averaged total body (CL), renal (CLR), and nonrenal (CLNR) clearances, were calculated by noncompartmental analysis (WinNonlin, Pharsight Corporation, Mountain View, CA, USA) using standard methods. AUC values were calculated using the trapezoidal rule–extrapolation method. The peak plasma concentration (Cmax) and time to reach Cmax (Tmax) were obtained directly from the experimental data. The mean values of clearance, terminal half-life, and Vss were calculated using the harmonic mean method.

## C[C@@H]1CCN(C(=O)CC#N)C[C@@H]1N(C)c1ncnc2[nH]ccc12 [tofacitinib, 3-[(3R,4R)-4-methyl-3-[methyl-(7H-pyrrolo[2,3-day]pyrimidin-4-l)amino]piperidin-1-yl]-3-oxopropanenitril]
[1]
  Terminal half-life: 192 min
  Volume of distribution: 87 L
[1]; oral
  Bound to plasma proteins: 40%
[2]
  Oral dose presumed first-pass metabolized in the intestine and the liver: 26%
[3]; plasma, iv 50 mg/kg
  clearance: 14.5 ± 2.33 mL/min/kg
[3]; all intravenous doses
  Ae0–24 h: less than 11.0%
[3]; intravenous, dose and AUC ratios based on 5 mg/kg
  Slope of plot of AUC versus dose: 2.74
[3]; iv
  CLR slower at 50 mg/kg than at 5 mg/kg: 69%
  CLR slower at 50 mg/kg than at 10 mg/kg: 71%
  CLR slower at 50 mg/kg than at 20 mg/kg: 71%
[3]; iv 5 mg/kg
  Ae0–24 h (excreted unchanged in 24-h urine): 7.62 ± 5.08 % of dose
  CLNR: 32.9 ± 7.72 mL/min/kg
  Dose-normalized AUC: 282 µg·min/mL and 282 ± 46.0 µg·min/mL
[3]; iv 10 mg/kg
  Ae0–24 h (excreted unchanged in 24-h urine): 9.40 ± 5.06 % of dose
  CLNR: 26.3 ± 2.16 mL/min/kg
  Dose-normalized AUC: 342 µg·min/mL and 342 ± 33.1 µg·min/mL
[3]; iv 20 mg/kg
  Ae0–24 h (excreted unchanged in 24-h urine): 11.0 ± 3.72 % of dose
  CLNR: 22.6 ± 3.90 mL/min/kg
  Dose-normalized AUC: 404 µg·min/mL and 404 ± 73.0 µg·min/mL
[3]; iv 50 mg/kg
  Ae0–24 h (excreted unchanged in 24-h urine): 5.55 ± 3.91 % of dose
  CLNR: 13.7 ± 2.12 mL/min/kg
  Dose-normalized AUC: 705 µg·min/mL and 705 ± 114 µg·min/mL
[3]; male, plasma, iv 5 mg/kg
  CL renal: 2.69 ± 1.7 mL/min/kg
  MRT: 35.2 min
  clearance: 36.3 ± 6.02 mL/min/kg
  half-life: 38.2 ± 11.7 min
  Vd: 1.26 ± 0.46 L/kg
[3]; male, plasma, iv 10 mg/kg
  CL renal: 2.8 ± 1.69 mL/min/kg
  MRT: 41.1 min
  clearance: 29.5 ± 2.99 mL/min/kg
  half-life: 41.6 ± 7.86 min
  Vd: 1.21 ± 0.579 L/kg
[3]; male, plasma, iv 20 mg/kg
  CL renal: 2.8 ± 1.17 mL/min/kg
  MRT: 35.5 min
  clearance: 25.4 ± 4.26 mL/min/kg
  half-life: 48.1 ± 5.56 min
  Vd: 0.9 ± 0.218 L/kg
[3]; male, plasma, iv 50 mg/kg
  CL renal: 0.824 ± 0.651 mL/min/kg
  MRT: 105 min
  half-life: 97.8 ± 19.2 min
  Vd: 1.49 ± 0.134 L/kg
[3]; male, range over intravenous doses, based on plasma data
  clearance: 14.5 to 36.3 mL/min/kg
[3]; plasma, 5 mg/kg
  AUC: 2350 ng·h/mL
[3]; plasma, 10 mg/kg
  AUC: 5700 ng·h/mL
[3]; plasma, 20 mg/kg
  AUC: 13500 ng·h/mL
[3]; plasma, 50 mg/kg
  AUC: 58800 ng·h/mL
